Experimental data: patent publication US20250144067A1, “PERSONALIZED STARVATION THERAPY FOR CANCER” (Faeth Therapeutics, Inc., priority 2021, published 2025)
Where a name gives a salt, the structure may show the parent alone. Read-outs that look alike come from different tables or passages of the source.

Tests used:
[1] = system: NCI-H292 lung cancer cells; test: FDA drug screening, complete media vs cholesterol-free media without statin (TABLE 1); assay type: cell-based, human
[2] = system: NCI-H292 lung cancer cells; test: FDA drug screening, complete media vs cholesterol-free media with simvastatin (TABLE 2); assay type: cell-based, human
[3] = NCI-H292 cells, cholesterol-free media without statin, FDA drug library screen
[4] = NCI-H292 cells, complete media, FDA drug library screen
[5] = complete vs cholesterol-free media, >0 enhanced anti-cancer activity, about 0 neutral, <0 antagonist
[6] = NCI-H292 cells, FDA drug library screen, cholesterol-free media with simvastatin 0.04 μM
[7] = NCI-H292 cells, FDA drug library screen, complete media
[8] = complete media vs cholesterol-free media + simvastatin (0.04 μM), >0 enhanced anti-cancer activity, about 0 neutral, <0 antagonist
[9] = NCI-H292 cells, cholesterol-free media without statin
[10] = NCI-H292 cells, drug in cholesterol-free media with simvastatin 0.04 μM
[11] = NCI-H292 cells, drug in complete media
[12] = Complete minus Cholesterol-free, >0 enhanced anti-cancer activity, about 0 neutral, <0 antagonist
[13] = Complete minus Cholesterol-free, greater than 0 enhanced anti-cancer activity, about 0 neutral, below 0 antagonists
[14] = NCI-H292 cells in cholesterol-free media without statin
[15] = NCI-H292 cells in complete media
[16] = NCI-H292 cells, cholesterol-free media with simvastatin 0.04 μM, FDA drug library screen (TABLE 2)
[17] = NCI-H292 cells, complete media, FDA drug library screen (TABLE 2)
[18] = complete media minus cholesterol-free media + simvastatin (0.04 μM), >0 enhanced anti-cancer activity, about 0 neutral, <0 antagonist
[19] = complete vs cholesterol-free media, […]
[20] = complete media vs cholesterol-free media + simvastatin (0.04 μM), […]
[21] = NCI-H292 cells, FDA library drug in cholesterol-free media with simvastatin 0.04 μM
[22] = NCI-H292 cells, FDA library drug in complete media
[23] = complete media minus cholesterol-free media + simvastatin, >0 enhanced anti-cancer activity, about 0 neutral, <0 antagonist
[24] = Complete minus Cholesterol-free, greater than 0 enhanced anti-cancer activity, about 0 neutral, below 0 antagonist
[25] = NCI-H292 cells, FDA drug library screen, cholesterol-free media without statin
[26] = NCI-H292 cells, cholesterol-free media with simvastatin 0.04 μM, cell growth value in FDA drug screen
[27] = NCI-H292 cells, complete media, cell growth value in FDA drug screen
[28] = complete media minus cholesterol-free media + simvastatin (0.04 μM), […]

SMILES: CC1(C)S[C@@H]2[C@H](NC(=O)[C@H](C(=O)[O-])c3ccsc3)C(=O)N2[C@H]1C(=O)[O-].[Na+].[Na+] [Ticarcillin (disodium)]
- Cholesterol-free [1, 3]: 0.7001
- Complete [1, 4]: 1.43
- Difference [1, 5]: 0.73
- Cholesterol-free media + simvastatin (0.04 μM) [2, 6]: 1.294
- Complete Media [2, 7]: 1.207
- Difference [2, 8]: −0.09

SMILES: CCC(C)(Oc1ccc(C2(c3ccc(OC(C)(CC)C(=O)O)cc3)CCCCC2)cc1)C(=O)O (stereo not drawn) [Clinofibrate]
- Cholesterol-free [1, 9]: 1.347
- Complete ([1]; NCI-H292 cells, complete media): 1.007
- Difference ([1]; complete vs cholesterol-free media, greater than 0 enhanced anti-cancer activity, about 0 neutral, below 0 antagonists): −0.34
- Cholesterol-free media + simvastatin (0.04 μM) [2, 10]: 1.342
- Complete Media [2, 11]: 1.081
- Difference [2, 8]: −0.26

SMILES: CCN(CC)CCOc1ccc2c(c1)C(=O)c1cc(OCCN(CC)CC)ccc1-2 [Tilorone (dihydrochloride)]
- Difference [1, 12]: −0.30
- Cholesterol-free [1, 9]: 1.404
- Complete ([1]; NCI-H292 cells, complete media): 1.104
- Cholesterol-free media + simvastatin (0.04 μM) [2, 10]: 1.099
- Complete Media [2, 11]: 0.8748
- Difference [2, 8]: −0.22

SMILES: CN(C/C=C/C#CC(C)(C)C)Cc1cccc2ccccc12 [Terbinafine hydrochloride]
- Difference [1, 13]: −0.57
- Cholesterol-free [1, 14]: 1.793
- Complete [1, 15]: 1.222
- Cholesterol-free media + simvastatin (0.04 μM) [2, 6]: 1.241
- Complete Media [2, 7]: 1.124
- Difference [2, 8]: −0.12

SMILES: Cc1cccc([C@H](C)c2cnc[nH]2)c1C [Dexmedetomidine (hydrochloride)]
- Difference [1, 12]: −0.05
- Cholesterol-free [1, 3]: 0.9551
- Complete [1, 4]: 0.9084
- Cholesterol-free media + simvastatin (0.04 μM) [2, 16]: 1.227
- Complete Media [2, 17]: 1.157
- Difference [2, 18]: −0.07

SMILES: CCOc1ccccc1OC(c1ccccc1)C1CNCCO1.CS(=O)(=O)O (stereo not drawn) [Reboxetine (mesylate)]
- Cholesterol-free [1, 3]: 1.105
- Complete [1, 4]: 1.321
- Difference [1, 19]: 0.22
- Cholesterol-free media + simvastatin (0.04 μM) [2, 6]: 0.8624
- Complete Media [2, 7]: 0.7048
- Difference [2, 20]: −0.16

SMILES: Nc1cccc2c1CN(C1CCC(=O)NC1=O)C2=O (stereo not drawn) [Lenalidomide (hemihydrate)]
- Difference [1, 12]: −0.19
- Cholesterol-free [1, 9]: 1.181
- Complete ([1]; NCI-H292 cells, complete media): 0.9861
- Cholesterol-free media + simvastatin (0.04 μM) [2, 21]: 1.432
- Complete Media [2, 22]: 1.135
- Difference [2, 8]: −0.30

SMILES: CC(C)CN(C[C@@H](O)[C@H](Cc1ccccc1)NC(=O)O[C@H]1CCOC1)S(=O)(=O)c1ccc(N)cc1 [Amprenavir]
- Cholesterol-free [1, 3]: 0.8915
- Complete [1, 4]: 1.403
- Difference [1, 5]: 0.51
- Cholesterol-free media + simvastatin (0.04 μM) [2, 6]: 1.669
- Complete Media [2, 7]: 1.996
- Difference [2, 23]: 0.33

SMILES: O=C(Nc1cnn2ccc(N3CCC[C@@H]3c3cc(F)ccc3F)nc12)N1CC[C@H](O)C1 [Larotrectinib]
- Difference [1, 24]: −0.08
- Cholesterol-free [1, 25]: 1.012
- Complete [1, 7]: 0.9305
- Cholesterol-free media + simvastatin (0.04 μM) [2, 26]: 1.092
- Complete Media [2, 27]: 1.143
- Difference [2, 23]: 0.05

SMILES: O=C(O)CCC(=O)c1ccc(-c2ccccc2)cc1 [Fenbufen]
- Difference [1, 13]: −0.96
- Cholesterol-free [1, 14]: 1.772
- Complete [1, 15]: 0.811
- Cholesterol-free media + simvastatin (0.04 μM) [2, 26]: 0.8759
- Complete Media [2, 27]: 0.8928
- Difference [2, 23]: 0.02

SMILES: Cn1ncnc1[C@H]1c2n[nH]c(=O)c3cc(F)cc(c23)N[C@@H]1c1ccc(F)cc1 [Talazoparib tosylate]
- Difference [1, 12]: 0.05
- Cholesterol-free [1, 3]: 0.1398
- Complete [1, 4]: 0.1924
- Cholesterol-free media + simvastatin (0.04 μM) [2, 21]: 0.5996
- Complete Media [2, 22]: 0.312
- Difference [2, 8]: −0.29

SMILES: CC[C@@]1(O)C[C@H](O[C@H]2C[C@H](N(C)C)[C@H](O[C@H]3C[C@H](O)[C@H](O[C@H]4CCC(=O)[C@H](C)O4)[C@H](C)O3)[C@H](C)O2)c2c(cc3c(c2O)C(=O)c2c(O)cccc2C3=O)[C@H]1C(=O)OC.Cl [Aclacinomycin A hydrochloride]
- Difference ([1]; Complete minus Cholesterol-free, […]): −0.01
- Cholesterol-free [1, 3]: 0.01335
- Complete [1, 4]: 0.007534
- Cholesterol-free media + simvastatin (0.04 μM) [2, 16]: 0.01688
- Complete Media [2, 17]: 0.01023
- Difference [2, 28]: −0.01

SMILES: COc1ccc(NC(=O)c2ccc(C(=N)N(C)C)cc2)c(C(=O)Nc2ccc(Cl)cn2)c1 [Betrixaban]
- Cholesterol-free [1, 3]: 0.6104
- Complete [1, 4]: 1.062
- Difference [1, 5]: 0.45
- Cholesterol-free media + simvastatin (0.04 μM) [2, 21]: 1.424
- Complete Media [2, 22]: 0.7486
- Difference [2, 8]: −0.68

SMILES: CCn1cc(C(=O)O)c(=O)c2ccc(C)nc21 [Nalidixic acid]
- Cholesterol-free [1, 9]: 1.332
- Complete ([1]; NCI-H292 cells, complete media): 0.9692
- Difference [1, 19]: −0.36
- Cholesterol-free media + simvastatin (0.04 μM) [2, 10]: 1.203
- Complete Media [2, 11]: 0.9667
- Difference [2, 20]: −0.24

SMILES: CC(=O)OCC(=O)[C@@]1(O)CC[C@H]2[C@@H]3CCC4=CC(=O)CC[C@]4(C)[C@H]3[C@@H](O)C[C@@]21C [Hydrocortisone acetate]
- Difference [1, 12]: −0.20
- Cholesterol-free [1, 9]: 0.8261
- Complete ([1]; NCI-H292 cells, complete media): 0.6264
- Cholesterol-free media + simvastatin (0.04 μM) [2, 6]: 0.7827
- Complete Media [2, 7]: 0.63
- Difference [2, 8]: −0.15

SMILES: CCN1CCCC(OC(=O)C(c2ccccc2)c2ccccc2)C1 (stereo not drawn) [Piperidolate]
- Cholesterol-free [1]: 1.19
- Complete [1]: 0.6819
- Difference [1]: −0.51
- Cholesterol-free media + simvastatin (0.04 μM) [2]: 0.8957
- Complete Media [2]: 1.487
- Difference [2]: 0.59

SMILES: CN(C)[C@@H]1C(O)=C(C(N)=O)C(=O)[C@@]2(O)C(O)=C3C(=O)c4c(O)c(NC(=O)CN5CCCC5)cc(F)c4C[C@H]3C[C@@H]12 [Eravacycline (dihydrochloride)]
- Cholesterol-free [1, 3]: 0.2139
- Complete [1, 4]: 0.4019
- Difference [1, 19]: 0.19
- Cholesterol-free media + simvastatin (0.04 μM) [2, 16]: 0.8088
- Complete Media [2, 17]: 0.7999
- Difference [2, 28]: −0.01

SMILES: Cc1cc2c(cc1S(N)(=O)=O)S(=O)(=O)CCC2 [Meticrane]
- Difference [1, 12]: −0.25
- Cholesterol-free [1, 9]: 1.363
- Complete ([1]; NCI-H292 cells, complete media): 1.109
- Cholesterol-free media + simvastatin (0.04 μM) [2, 21]: 1.393
- Complete Media [2, 22]: 0.8316
- Difference [2, 8]: −0.56

SMILES: CC12CC3CC(C)(C1)CC(N)(C3)C2 [Memantine (hydrochloride)]
- Difference [1, 24]: −0.14
- Cholesterol-free [1, 25]: 0.8008
- Complete [1, 7]: 0.656
- Cholesterol-free media + simvastatin (0.04 μM) [2, 26]: 0.8007
- Complete Media [2, 27]: 0.853
- Difference [2, 23]: 0.05

SMILES: O=C(CO)[C@@H](O)[C@H](O)[C@H](O)CO [Fructose]
- Cholesterol-free [1, 3]: 1.048
- Complete [1, 4]: 1.329
- Difference [1, 5]: 0.28
- Cholesterol-free media + simvastatin (0.04 μM) [2, 21]: 2.032
- Complete Media [2, 22]: 1.165
- Difference [2, 8]: −0.87

SMILES: Cn1c(=O)c2[nH]cnc2n(C)c1=O [Aminophylline]
- Difference [1, 24]: −0.14
- Cholesterol-free [1, 25]: 0.9006
- Complete [1, 7]: 0.7581
- Cholesterol-free media + simvastatin (0.04 μM) [2, 16]: 0.918
- Complete Media [2, 17]: 0.8588
- Difference [2, 18]: −0.06

SMILES: COc1ccc(CCNCC(O)COc2cccc(C)c2)cc1OC (stereo not drawn) [Bevantolol (hydrochloride)]
- Difference [1, 13]: −0.52
- Cholesterol-free [1, 14]: 1.227
- Complete [1, 15]: 0.7079
- Cholesterol-free media + simvastatin (0.04 μM) [2, 21]: 1.404
- Complete Media [2, 22]: 0.952
- Difference [2, 8]: −0.45

SMILES: CC(=O)O[C@H]1Cc2ccccc2N(C(N)=O)c2ccccc21 [Eslicarbazepine acetate]
- Difference [1, 12]: −0.21
- Cholesterol-free [1, 9]: 0.9987
- Complete ([1]; NCI-H292 cells, complete media): 0.7874
- Cholesterol-free media + simvastatin (0.04 μM) [2, 26]: 1.032
- Complete Media [2, 27]: 1.104
- Difference [2, 23]: 0.07
